Test system: Hepatocyte spheroids
Assay: This assay model using primary human hepatocyte (PHH) spheroids, which are cultured in Williams E medium. After spheroid formation, cells are exposed to compounds in an FBS-free culture medium. […] Imaging is performed on an Opera Phenix High-Content Screening System, allowing quantification of proliferation as a readout for evaluating the effects of chemical probes on hepatocyte regeneration.
Type: functional
Conditions: read-out: Cell Viability; for viability at 1 µM: Concentration 1 uM; for viability at 10 µM: Concentration 10 uM; for viability at 0.1 µM: Concentration 0.1 uM

SMILES | viability at 1 µM | viability at 10 µM | viability at 0.1 µM | viability at 2 µM (Concentration 2 uM) | viability at 20 µM (Concentration 20 uM)
c1ccc(N2CCN(Cc3nc4ccccc4[nH]3)CC2)nc1 | 117% (non-toxic) | 110% (non-toxic) | – | – | –
COc1cc(-c2cn([C@H]3CCc4c(F)cccc4N(CC(F)(F)F)C3=O)nn2)ccc1-n1cnc(C)c1 | 115% (non-toxic) | 126% (non-toxic) | – | – | –
Clc1cccc(-c2nnnn2Cc2cccnc2)c1Cl | 97.1% (non-toxic) | 98.7% (non-toxic) | – | – | –
Cc1nc(N2CC[C@H](O)C2)ncc1-c1cc(C(F)(F)F)cc2[nH]ncc12 | 116% (non-toxic) | 107% (non-toxic) | – | – | –
O=C1CCc2cc(Nc3cc(OC4CCOCC4)c([N+](=O)[O-])cc3Cl)ccc2N1 | 147% (non-toxic) | 76% (non-toxic) | – | – | –
CC(C)(O)[C@H](F)CN1Cc2cc(NC(=O)c3cnn4cccnc34)c(N3CCOCC3)cc2C1=O | 118% (non-toxic) | 90.2% (non-toxic) | – | – | –
O=C(O)c1cc(-c2ccc(C3CCNCC3)cc2)c2ccc(-c3ccc(C(F)(F)F)cc3)cc2c1 | 91.3% (non-toxic) | 1.07% (toxic) | – | – | –
C[C@@H](c1cccc(CN)c1)n1cc(Cl)cc(C(N)=O)c1=N | 104% (non-toxic) | 111% (non-toxic) | – | – | –
CCCCN(CCCC)C(=O)CN1C[C@H](c2cc(OC)c3c(c2)OCO3)[C@@H](C(=O)O)[C@@H]1CC(C)(C)CCC | 83.6% (non-toxic) | – | 107% (non-toxic) | – | –
c1ccc2oc(-c3csc(C4CCN(Cc5nc6ncccc6[nH]5)CC4)n3)cc2c1 | 88.5% (non-toxic) | 35.4% (toxic) | – | – | –
CCOc1ccc(S(=O)(=O)Nc2ccc(Cl)cc2C#Cc2cnc(C(=O)O)cc2OC)c2ncccc12 | 91.1% (non-toxic) | 17.2% (toxic) | – | – | –
CC1=CC(C)=[N+]2C1=C(CCCCc1cn(CC(=O)N3CCc4nc(NC(=O)[C@H]5CCN(C#N)C5)sc4C3)nn1)c1c(C)cc(C)n1[B-]2(F)F | 104% (non-toxic) | 105% (non-toxic) | – | – | –
CCNC(=O)c1cc2c(N3CCOCC3C)ccnc2[nH]1 (configuration not stated) | 90.1% (non-toxic) | 74.9% (non-toxic) | – | – | –
Cn1cncc1[C@](O)(COc1ccc(C#N)cc1-c1ccc(OC(F)(F)F)cc1)c1ccc(C#N)cc1 | 112% (non-toxic) | 113% (non-toxic) | – | – | –
N#CN1CC[C@H](C(=O)Nc2nc3c(s2)CN(C(=O)CN=[N+]=[N-])CC3)C1 [8RK64] | 97.6% (non-toxic) | 70.7% (toxic) | – | – | –
CN(C)[C@@H]1CCN(c2cc(-c3ccccc3)nc3ccnn23)C1 [(R)-ZINC-3573] | 111% (non-toxic) | 95.8% (non-toxic) | – | – | –
CNC(=O)Nc1ccc2c(c1)CC[C@@]21OC(=O)N(CC(=O)N(Cc2ccc(F)cc2)[C@@H](C)C(F)(F)F)C1=O [A-485] | 69.1% (toxic) | – | 102% (non-toxic) | – | –
CCCOc1ccc([C@H]2[C@H](C(=O)O)[C@@H](c3ccc4c(c3)OCO4)CN2CC(=O)Nc2c(CC)cccc2CC)cc1 [A-192621] | 110% (non-toxic) | – | 104% (non-toxic) | – | –
CN(C)CC#Cc1ccc(OCCCc2sc(N3CCc4cccc(C(=O)Nc5nc6ccccc6s5)c4C3)nc2C(=O)O)c(F)c1 [A-1155463] | 120% (non-toxic) | 117% (non-toxic) | – | – | –
CO[C@H]1CC[C@H](CNc2ccc(S(=O)(=O)NC(=O)c3ccc(N4CCN(CC5=C(c6ccc(Cl)cc6)CC(C)(C)CC5)CC4)cc3Oc3cnc4[nH]ccc4c3)cc2[N+](=O)[O-])CC1 [A-1211212] | 130% (non-toxic) | 126% (non-toxic) | – | – | –
COc1ccc2c(c1)O[C@@H](c1ccc(OC)c(OC)c1)C[C@H]2NC(=O)C1(c2ccc3c(c2)OC(F)(F)O3)CC1 [A-1596586] | 104% (non-toxic) | 88.5% (non-toxic) | – | – | –
Cc1ccccc1Oc1cc(-n2c(=O)cc(C(F)(F)F)[nH]c2=O)c2ccccc2c1Cl [BAY-069] | 82.5% (non-toxic) | 62.5% (toxic) | – | – | –
CNCc1ccccc1-c1csc([C@@H](C)Nc2nc(C)nc3cc(OC)c(OC)cc23)c1 [BAY-293] | 120% (non-toxic) | 0.873% (toxic) | – | – | –
O=C(N1CCS(=O)(=O)CC1)N1C[C@H](c2ccc(OC(F)(F)F)cc2)C[C@H](c2nc(C3CC3)no2)C1 [BAY-386] | 121% (non-toxic) | 111% (non-toxic) | – | – | –
O[C@]1(C(F)(F)F)CCCC[C@H]1Nc1ccc(F)cc1 [BAY-390] | 96.9% (non-toxic) | – | 99.2% (non-toxic) | – | –
CC1=C(C#N)C(c2ccc3[nH]nc(C)c3c2)C(C#N)=C(C)N1 [BAY-474] | 99.5% (non-toxic) | 111% (non-toxic) | – | – | –

SMILES | viability at 1 µM | viability at 10 µM | viability at 0.1 µM | viability at 2 µM (Concentration 2 uM) | viability at 20 µM (Concentration 20 uM)
Cc1c[nH]c2nccc(Oc3c(F)cc(Nc4cc(Cl)nc(N)n4)cc3F)c12 [BAY-549] | 83.7% (non-toxic) | – | 79.9% (non-toxic) | – | –
CC(=O)C1=C(C)N(c2cccc(C(F)(F)F)c2)C(=O)N[C@@H]1c1ccc(C#N)nc1 [BAY-678] | 139% (non-toxic) | 132% (non-toxic) | – | – | –
O=C(NCc1ncc(C(F)(F)F)cc1Cl)c1ccc2c(c1)C1(CCS(=O)(=O)CC1)[C@H](C1CC1)N2S(=O)(=O)c1ccc(F)cc1 [BAY-784] | 107% (non-toxic) | – | 103% (non-toxic) | – | –
Cc1cc(C)c(-n2ccn3nc(-c4cccnc4)cc23)cc1NC(=O)c1cc(C#N)cc(S(F)(F)(F)(F)F)c1 [BAY-826] | 144% (non-toxic) | – | 149% (non-toxic) | – | –
Cc1c(NC(=O)c2cc(C(N)=O)nc3cc(F)ccc23)c(C(F)(F)F)nn1Cc1ccc(C#N)cc1 [BAY-876] | 91.5% (non-toxic) | 21.4% (toxic) | – | – | –
CN1CCN(c2cnc3c(C4CCN(C(=O)c5ccc(OC(F)(F)F)cc5N)CC4)ncnc3c2)CC1 [BAY-885] | 99.8% (non-toxic) | 98.6% (non-toxic) | – | – | –
O=C(Nc1cnc(Oc2ccc(F)cc2)nc1)N1CCc2ncccc2[C@@H]1c1ccc(F)cc1 [BAY-899] | 92.3% (non-toxic) | 106% (non-toxic) | – | – | –
C[C@H](c1ccnc(Nc2nc3ccc(-c4cc(N(C)C)ncn4)cc3[nH]2)c1)N1CCN(C(=O)CC(F)(F)F)CC1 [BAY-985] | 68.2% (non-toxic) | 38.1% (toxic) | – | – | –
NS(=O)(=O)c1cc(NC(=O)Cc2ccccc2)ccc1Oc1cccc(Cl)c1 [BAY-1797] | 111% (non-toxic) | 19.3% (toxic) | – | – | –
CCc1ccccc1C(=O)Nc1n[nH]c2c(C)c(F)c(C3C(C#N)=C(C)N(C)C(C)=C3C#N)cc12 [BAY-3827] | 110% (non-toxic) | 84.2% (non-toxic) | – | – | –
Cc1c(N2CCCC2)nc2ccc(Br)cc2c1C(=O)NC[C@H](CCC(=O)O)c1ccccc1Cl [BAY-6672] | 106% (non-toxic) | 111% (non-toxic) | – | – | –
O=C(O)[C@H]1[C@H](Cn2nnc3ccccc3c2=O)CC[C@@H]1C(=O)c1ccc(OCCC2CCOCC2)cc1 [BAY-7598] | 97.3% (non-toxic) | – | 96.9% (non-toxic) | – | –
NC(=O)c1ccc2nc(-c3ccc(C4(N)CCC4)cc3)c(-c3ccccc3)n2n1 [BAY-1125976] | 75.2% (non-toxic) | – | 94.8% (non-toxic) | – | –
COc1ccc2c(O[C@@H]3C[C@H]4C(=O)N[C@]5(C(=O)O)CC5/C=C\CCCCC[C@H](NC(=O)OC5CCCC5)C(=O)N4C3)cc(-c3csc(NC(=O)C(C)C)n3)nc2c1C (some centres not stated) [BI 1230] | 106% (non-toxic) | 0.711% (toxic) | – | – | –
CCOCCn1cc(C(=O)Nc2ccc(-n3nc(-c4cccnc4)cc3C(F)(F)F)cn2)ccc1=O [BI 1935] | 100% (non-toxic) | 34.7% (toxic) | – | – | –
C[C@H](NC(=O)c1cnc2n1[C@](C)(Cc1ccc(C#N)cc1)C(=O)N2c1cc(Cl)c(F)c(Cl)c1)C(=O)NC1(c2ccccn2)CC1 [BI 1950] | 110% (non-toxic) | 121% (non-toxic) | – | – | –
Cc1c(NC(=O)COc2ccc(Cl)cc2C(=O)c2cc(F)cc(C(F)(F)F)c2)ccc(C(=O)O)c1F [BI 2540] | 95.6% (non-toxic) | 93.1% (non-toxic) | – | – | –
O=C(NC[C@@H]1[C@H]2CN(C(=O)OCc3cc(C(F)(F)F)cc(C(F)(F)F)c3)C[C@@H]12)c1ccc2[nH]nnc2c1 [BI 2545] | 119% (non-toxic) | 76.5% (non-toxic) | – | – | –
CCOC(=O)c1cc2cc(-c3cc(C(=O)NCc4ccc(C(=O)O)cc4)nn3C)ccc2[nH]1 [BI 4394] | 106% (non-toxic) | – | 108% (non-toxic) | – | –
CC(=O)N1CCC(c2ccc(C(=O)NC(=N)N)cc2C(F)(F)F)CC1 [BI 9627] | 78.4% (non-toxic) | 106% (non-toxic) | – | – | –
CCC(=O)N[C@H]1CC[C@@H](C(=O)N(C)c2ccc(-c3nc4ccccc4o3)cc2)C1 [BI 99179] | 81.6% (non-toxic) | 55.6% (toxic) | – | – | –
CS(=O)(=O)c1cc(C2(NC(=O)c3cncc4c3cnn4-c3ccc(F)cc3)CC2)ccn1 [BI 639667] | – | – | – | 60.2% (toxic) | 59.6% (toxic)
CCS(=O)(=O)c1cc2cc(C[C@](O)(CC(C)(C)c3ccc(F)cc3C(N)=O)C(F)(F)F)[nH]c2cn1 [BI 653048] | 116% (non-toxic) | 116% (non-toxic) | – | – | –
CN(C)C(=O)Cn1cc(-c2nc([C@@](C)(c3ccc(-c4cnc(N)nc4)cc3)C3CC3)no2)cn1 [BI 665915] | 84.4% (non-toxic) | – | 104% (non-toxic) | – | –
CC[C@H](CC(=O)O)n1c(=O)c2ncccc2n(Cc2cn(C)c3cc(C)cc(C)c23)c1=O [BI-1942] | 53.2% (toxic) | 65.2% (toxic) | – | – | –

Reference: ChEMBL document CHEMBL5608109, “Hepatotoxicity screening of Donated Chemical Probes” (2024)
